Values of other authors, collected in US5277910A, “Process for the preparation of a pharmaceutical composition selectively lowering the blood-lipid level” (priority 1991, dated 1994).

Experiments:
monkeys = monkeys fed with alfalfa; in words
[1] = in words

Structure (SMILES)	induced syndrome (monkeys)	uterotrophic activity [1]
N=C(N)NOCCC(N)C(=O)O (centres unmarked) [Canavanine, 2-amino-4-(guanidinooxy)-butyric acid]	induces a syndrome resembling lupus erithemathosus	
O=c1oc2cc(O)ccc2c2oc3cc(O)ccc3c12 [coumestrol]		high uterotrophic activity
